Assay [1] relates to calf serum albumin (BSA). Briefly: Modification of BSA by lipid peroxides (protein carbonyl, OLAARPs). It is filed as biochemical. As to conditions: for OLAARPs Formation: (%) / Protein carbonyl Formation: (%): BSA, versus no saccharide; for Formed OLAARPs / Formed Protein carbonyl: 37° C., 24 hours. Here is the method: (§1) In this experiment, saccharide solutions were prepared to give an equal total saccharide molar concentration in each solution.
(§2) As a negative control, PBS was used.
(§3) To five milliliters of either of the above saccharide solutions for testing or the negative control was added 10 mg of calf serum albumin (BSA) or L-lysine, followed by dissolving. To each of the resulting solutions was added 25 μg of 2,4-decadienal or malondialdehyde (MDA) as a lipid peroxide, followed by reaction at 37° C. for 24 hours. After completion of the reaction, protein carbonyl and reaction products of oxidized lipids/aminoacids (OLAARPs) formed as aldehyde adducts were quantified on the calorimetric method. […] The formation levels of protein carbonyl and OLAARPs were determined based on the absorbances obtained in this experiment, in terms of the molar absorbance coefficient for each molecule as disclosed in Biochim. Biophys.
(§4) To each of the resulting mixtures was added 600 μl of 30% trichloroacetic acid, and the mixture was allowed to stand at 0° C. for one hour and centrifuged at 10,000 rpm for 15 min to obtain a precipitate, followed by washing the resulting precipitate four times with two milliliters of ethanol/ethylacetate (1:1), respectively, adding 1.5 ml of 6M-guanidine hydrochloride/20 mM-NaPi/TFA (pH 2.3) to the resultant, allowing the mixture to stand at 37° C. for 30 min, and measuring the absorbance of the resulting mixture at a wavelength of 580 nm, ε=35,000 M^−1 cm^−1.

A short description of assay [2]: Modification of L-lysine by lipid peroxides (protein carbonyl, OLAARPs). Conditions: for OLAARPs Formation: (%) / Protein carbonyl Formation: (%): L-lysine, versus no saccharide; for Formed OLAARPs / Formed Protein carbonyl: 37° C., 24 hours. Here is the method: as §1, §2
as §3, with “Biophys. Acta, No. 1,258, pp. 319-327 (1985).” for “Biophys.”
as §4, with “cm^−1. […] To any one of the resulting mixtures was added two milliliters of a 12.5 mM DNPH/2.5 N-hydrochloride solution, and the resulting mixture was allowed to stand at 45° C. for 30 min, followed by measuring the absorbance of the resulting mixture at a wavelength of 580 nm, E=35,000 M^−1 cm^−1.” for “cm^−1.”

The test system of assay [3] is sucrase. Briefly: Sucrase activity of rat small intestinal mucosal enzyme solution after AAPH oxidation. It counts as biochemical. Here is the method:
One milliliter of the above rat small intestinal mucosal enzyme solution, one milliliter of a 100 mM AAPH solution, one milliliter of a 50 mM phosphate buffer (pH 7.2), and one milliliter of a 400 mM of the crystalline cyclotetrasaccharide pentahydrate prepared in Experiment 1-1 were mixed, incubated at 37° C. for two hours, and measured for the activities of sucrase and maltase.
After incubated at 37° C. for 30 min, the mixture was quantified for free glucose by the GOD method.

Assay [4] has as its system maltase. Briefly: Maltase activity of rat small intestinal mucosal enzyme solution after AAPH oxidation. It counts as biochemical. Here is the method:
One milliliter of the above rat small intestinal mucosal enzyme solution, one milliliter of a 100 mM AAPH solution, one milliliter of a 50 mM phosphate buffer (pH 7.2), and one milliliter of a 400 mM of the crystalline cyclotetrasaccharide pentahydrate prepared in Experiment 1-1 were mixed, incubated at 37° C. for two hours, and measured for the activities of sucrase and maltase. […] To a half milliliter of a maltose solution, which had been prepared by dissolving maltose in 50 mM sodium maleate (pH 6.6) to give a concentration of one percent (%), 0.05 ml of a AAPH-rat small intestinal mucosal enzyme solution. After incubated at 37° C. for 30 min, the mixture was quantified for free glucose by the GOD method. One unit (U) activity of maltase was defined as an enzyme amount that releases two micromoles of glucose per minutes from maltose at 37° C.

Setting [5] is: added lipid peroxide 2,4-decadienal.
Where [6] appears, read: added lipid peroxide malondialdehyde (MDA).
[7] abbreviates: enzyme solution incubated with AAPH at 37° C. for two hours, with or without cyclotetrasaccharide.
[8] abbreviates: versus system with no AAPH, 37° C., two hours.

As for `OC[C@@H](O)[C@@H](O[C@H]1O[C@H](CO)[C@@H](O)[C@H](O)[C@H]1O)[C@H](O)[C@@H](O)CO` [Maltitol, maltitol], the “OLAARPs Formation: (%)” value in assay [1] (2,4-decadienal) is reported as “(67) %”; in assay [1] (MDA), “(48) %”; in assay [2] (2,4-decadienal), “(73) %”; in assay [2] (MDA) it was “(84) %”. Moreover, the “Protein carbonyl Formation: (%)” value in assay [1] (2,4-decadienal) was “(53) %”; in assay [1] (MDA), “(53) %”; in assay [2] (2,4-decadienal), “(51) %”; in assay [2] (MDA) it was “(55) %”. Moreover, the “Formed OLAARPs” value in assay [1] (setting [5]) is given as 2.83 μmol/g-BSA; in assay [1] (setting [6]), 2.78 μmol/g-BSA; in assay [2] (setting [5]), 5.90 μmol/g-L-lysine; in assay [2] (setting [6]) it was 7.23 μmol/g-L-lysine. Besides, the “Formed Protein carbonyl” value in assay [1] (setting [5]) came to 7.51 μmol/g-BSA; in assay [1] (setting [6]) it was 1.29 μmol/g-BSA; in assay [2] (setting [5]), 6.81 μmol/g-L-lysine; in assay [2] (setting [6]), 3.29 μmol/g-L-lysine.
In assay [3] (setting [7]), `CC(C)(N=NC(C)(C)C(=N)N)C(=N)N.Cl.Cl` [AAPH, 2,2′-azo-bis(2-amidinopropane)dihydrochloride, reference compound] gave a Sucrase activity of 0.0042 u/mg-protein. In addition, the “Sucrase Relative residual activity (%)” value in assay [3] (setting [8]) is “(29) %”. The Maltase activity in assay [4] (setting [7]) came to 0.0555 u/mg-protein. In addition, the “Maltase Relative residual activity (%)” value in assay [4] (setting [8]) is recorded as “(71) %”.
Consider `OC[C@H]1O[C@@](CO)(O[C@H]2O[C@H](CO)[C@@H](O)[C@H](O)[C@H]2O)[C@@H](O)[C@@H]1O` [Sucrose, sucrose], for which, in assay [2] (2,4-decadienal), the “OLAARPs Formation: (%)” value was “(93) %” and the “Protein carbonyl Formation: (%)” value is on record as “(81) %”. Moreover, in assay [2] (MDA), the “OLAARPs Formation: (%)” value was “(94) %” and the “Protein carbonyl Formation: (%)” value is recorded as “(96) %”. In assay [2] (setting [5]), the “Formed OLAARPs” value was determined as 7.54 μmol/g-L-lysine and the “Formed Protein carbonyl” value came out at 10.92 μmol/g-L-lysine. Besides, in assay [2] (setting [6]), the “Formed OLAARPs” value was 8.13 μmol/g-L-lysine and the “Formed Protein carbonyl” value is reported as 5.75 μmol/g-L-lysine.
